One molecule from patent US20060281786A1, “Compounds having activity at 5ht2c receptor and uses thereof” (priority 2003, published 2006) can be followed below.

The structures appear in SMILES notation.

Molecule `COc1cc2c3c(n(C)c2cc1Br)CN(c1ccc(OC)c(OCCN2CCCCC2)c1)C3=O.Cl` displayed a melting point of 227 to 229 °C.
